Results: patent US20020137779A1, “Use of L-2-oxothiazolidine-4-carboxylic acid for the treatment of type 2 diabetes” (Advanced Biochemicals Inc., priority 2001, published 2002)

Experiments:
mice = mice pre-treated with L-2-oxothiazolidine-4-carboxylic acid, acetaminophen 9.5 mmol/kg oral; cited from earlier work
pancreatic islet cells = assay: insulin secretion of pancreatic islets isolated from mice, radioimmunoassay; assay type: cell-based, C57BL mouse
Method: First step; After isolating pancreatic islets from a C57BL mouse according to Lacy and Kotianovsky(Diabetes, 16, 35-39, 1967), the islets were incubated for 60 min. at 37°C. with 250 […] of L-2-oxothiazolidine-4-carboxylic acid alone or together with 2.8-25 mM of glucose, and insulin from the supernatant was measured by radioimmunoassay,
The isolation of pancreatic islets from a C57BL mouse(weight; 20 g, Samtako, Daejeon, Korea) was performed according to the method of Lacy and Kotianovsky et al.(Diabetes, 16; 35-39, 1967). The pancreas of ether-anesthetized mouse was distended by infusion with Hank's balanced salt solution(HBSS, GIBCO, USA) containing 1 mg/ml of collagenase (Sigma, USA) via common bile duct and isolated. The isolated pancreas was digested for 20 min at 37 C while stirring homogeneously. After removing acinar cells by washing with HBSS, pancreatic islets of similar size were collected under dissecting microscope. 2.8-25 mM of glucose(Sigma, USA) alone or together with 250 ^μM-[…] of L-2-oxothiazolidine-4-carboxylic acid were administered to the isolated 10 pancreatic islets in 100 ^μl of Krebs Ringer bicarbonate(Sigma, USA) buffer solution containing 10 mM of Hepes, the islets were incubated for 60 min. at 37 °C., and insulin in the supernatant, from which the pancreatic β-islet cells was removed, was measured. […]

[1] = system: type 2 diabetes mice (C57BL/KsJ-db/db Jcl); assay: blood glucose levels after oral administration for 1-4 weeks (Example 4); assay type: in vivo, mouse; details: for duration of the blood glucose lowering effect: after glucose intake
Method: The chemical L-2-oxothiazolidine-4-carboxylic acid was orally administered to diabetes mice(C57BL/KsJ-db/db Jcl) with a single dose of 3.0-400 mg/kg once in the state of empty stomach or 40-80 mg/kg twice a day for 1-4 weeks continuously.
Seven week old type 2 diabetes mice were maintained as in EXAMPLE 2. 0.2 ml of PBS (pH 7.4) was given to a control group twice a day for 1-4 weeks, and 40-80 mg/kg of L-2-oxothiazolidine-4-carboxylic acid dissolved in 0.2 ml of PBS of which pH was adjusted to 7.4 with 3 N NaOH(Junsei, Japan) was orally administered to an experimental group.
The results of blood glucose levels shown in FIG. 7 were obtained, after 40-80 mg/kg of L-2-oxothiazolidine-4-carboxylic acid was administered to type 2 diabetes mice twice a day for two weeks and after glucose was subsequently given, as described in […]

[2] = ED50 by linear regression method; assay type: in vivo; details: calculated by linear regression method; read-out: ED50 (50% of maximum effective dose)
From the text: ED50 is defined as 50% of maximum effective dose calculated by linear regression method. The term “treat” refers to the ability of the compounds to either relieve, alleviate, or slow the progression of the patient's disease.

[3] = system: type 2 diabetes mice (C57BL/KsJ-db/db Jcl); assay: serum insulin levels after glucose intake, single oral administration (Example 3); assay type: in vivo, mouse; details: for concentration of insulin / increase of insulin concentration vs control group: 30 min after glucose intake
Method: Third step; Determining the abilities of lowering blood glucose level and increasing insulin secretion ability following glucose loading, by administering a single dose of 8-80 mg/kg of L-2-oxothiazolidine-4-carboxylic acid to a type 2 diabetes mouse, Fourth step; Examining the effect of long term administration of L-2-oxothiazolidine-4-carboxylic acid on lowering blood glucose levels,
Under the same breeding condition as in EXAMPLE 2, no feed but water was given to 7 week old type 2 diabetes mice (C57BL/KsJ-db/db Jel, Clea, Japan) for 13 hours. 0.2 ml of PBS was orally given to the control group(5 mice) using feeding needle, and 8-80 mg/kg of L-2-oxothiazolidine-4-carboxylic acid dissolved in 0.2 ml of PBS was orally administered to the experimental group(5 mice). After 5 hours of drug administration, 1 g/kg of glucose (Sigma, USA) was intraperitoneally injected and the mice were maintained for 30 to 120 minutes. The blood glucose levels of type 2 diabetes mice at various time points were measured by the glucose oxidase method using a glucose analyzer(One-touch Basic, Lifescan, USA), and serum insulin levels were determined using a radioimmunoassay, as described in EXAMPLE 2.

[4] = system: type 2 diabetes mice (C57BL/KsJ-db/db Jcl); assay: blood insulin concentration after oral administration for four weeks (Example 5); assay type: in vivo, mouse; details: 80 mg/kg per day for four weeks
Method: Fifth step Determining the ability of insulin secretion after oral administration of L-2-oxothiazolidine-4-carboxylic acid for 4 weeks to a 7 week old type 2 diabetes mouse, and
Seven week old type 2 diabetes mice were maintained as in EXAMPLE 2. 0.2 ml of PBS (pH 7.4) was given to a control group(4 mice) twice a day for four weeks, and 80 mg/kg of L-2-oxothiazolidine-4-carboxylic acid dissolved in 0.2 ml of PBS of which pH was adjusted to 7.4 with 3 N NaOH(Junsei, Japan), was orally administered to an experimental group(4 mice). Five hours after the drug was finally administered, 1 g/kg of glucose was intraperitoneally injected. Tails were cut, blood samples were taken from the tails at 60 min. time intervals until 180 min., the samples were left at room temperature for three hours, sera were collected, and the insulin concentration was measured by radioimmunoassay.

[5] = 40 mg/kg for one week, 60 min after glucose intake
[6] = 40 mg/kg for two weeks, 60 min after glucose addition
[7] = 40 mg/kg for two weeks, 120 min after glucose intake
[8] = 80 mg/kg for four weeks, 120 min after glucose intake
[9] = 80 mg/kg for four weeks, fasted state (13 hours)
[10] = 80 mg/kg for one week, 60 min after glucose intake
[11] = 80 mg/kg for one week, 120 min after glucose intake
[12] = 80 mg/kg for one week, fasted state (13 hours)
[13] = 80 mg/kg for two weeks, 60 min after glucose addition
[14] = 80 mg/kg for two weeks, 120 min after glucose intake

For `O=C1NC(C(=O)O)CS1` [OTC, L-2-oxothiazolidine-4-carboxylic acid], which mortality rate (mice) is on record?
Its mortality rate is “less than 10%”.

What about the “insulin secretion of pancreatic islet cells” value (pancreatic islet cells; 500 μM−2 mM OTC in the presence of 17.5 mM glucose, 60 min at 37°C) of the same compound?
Its value is “increased insulin secretion in a dose-dependent manner”.

What about the “glucose dependence of the stimulation of insulin secretion from pancreatic islets” value (pancreatic islet cells; OTC 500 μM-2 mM) of the same compound?
Its value is “the presence of glucose is required for the stimulation of insulin secretion”.

What about the blood glucose level ([1]; 40 mg/kg for four weeks, 180 min after glucose intake) of the same compound?
The blood glucose level was 50.50 ± 44.21 mg/dL.

And the blood glucose level [1, 5]?
Its blood glucose level is 507.50 ± 52.81 mg/dL.

What about the “decrease of blood glucose level vs control group” value (“decrease of blood glucose level” below) [1, 5] of the same compound?
The value was 16.8%.

What about the blood glucose level [1, 6] of the same compound?
Its blood glucose level is 699.00 ± 58.91 mg/dL.

And the “lowering effect of blood glucose levels compared to the control group” value [1, 6]?
The value was 15.83%.

What about the blood glucose level [1, 7] of the same compound?
Its blood glucose level is 599.50 ± 52.46 mg/dL.

What about the “lowering effect of blood glucose levels compared to the control group” value [1, 7] of the same compound?
The value was 22.2%.

And the blood glucose level ([1]; 40 mg/kg for two weeks, fasted for 13 hours)?
Its blood glucose level is 306.30 ± 24.06 mg/dL.

And the blood glucose level [1, 8]?
Its blood glucose level is 539 ± 23.60 mg/dL.

And the “lowering effect of blood glucose levels compared to the control group” value [1, 8]?
Its value is 38.8%.

And the blood glucose level [1, 9]?
The blood glucose level was 297.00 ± 26.51 mg/dL.

And the “more effective in lowering blood glucose levels than the control group” value [1, 9]?
Its value is 32.5%.

What about the blood glucose level [1, 10] of the same compound?
The blood glucose level was 277.50 ± 40.89 mg/dL.

What about the “decrease of blood glucose level” value [1, 10] of the same compound?
Its value is 54.51%.

And the blood glucose level [1, 11]?
The blood glucose level was 158.00 ± 28.33 mg/dL.

What about the “decrease of blood glucose level” value [1, 11] of the same compound?
Its value is 72.11%.

What about the blood glucose level [1, 12] of the same compound?
Its blood glucose level is 116.00 ± 119.74 mg/dL.

And the “blood glucose level relative to the control group” value [1, 12]?
The value was 52.07%.

And the blood glucose level [1, 13]?
The blood glucose level was 477.50 ± 58.91 mg/dL.

What about the “blood glucose level relative to the control group” value [1, 13] of the same compound?
The value was 42.50%.

And the blood glucose level [1, 14]?
The blood glucose level was 398.00 ± 28.33 mg/dL.

What about the “lowering effect of blood glucose levels compared to the control group” value [1, 14] of the same compound?
The value was 48.81%.

And the blood glucose level ([1]; 80 mg/kg for two weeks, fasted for 13 hours)?
The blood glucose level was 301.50 ± 12.2 mg/dL.

What about the “duration of the blood glucose lowering effect” value ([1]; 40-80 mg/kg for four weeks) of the same compound?
Its value is “about 180 min”.

And the “duration of the blood glucose lowering effect” value ([1]; 40-80 mg/kg for one week)?
Its value is “about 180 minutes”.

And the “duration of the blood glucose lowering effect” value ([1]; 40-80 mg/kg for two weeks)?
The value was “about 180 min”.

What about the “increase of lowering effect of blood glucose levels compared to the control group” value ([1]; 40-80 mg/kg for two weeks, fasted for 13 hours) of the same compound?
Its value is 11.5%.

And the ED50 [2]?
The ED50 was 15 mg/kg.

What about the concentration of insulin ([3]; 40 mg/kg single oral dose) of the same compound?
The concentration of insulin was 1,650±103 pmol/1.

What about the “increase of insulin concentration vs control group” value ([3]; 40 mg/kg single oral dose) of the same compound?
The value was 26.5%.

What about the concentration of insulin ([3]; 80 mg/kg single oral dose) of the same compound?
Its concentration of insulin is 1,760±94 pmol/l.

And the “increase of insulin concentration vs control group” value ([3]; 80 mg/kg single oral dose)?
The value was 35.4%.

What about the “duration of the improvement of insulin secretion after the intake of glucose” value ([3]; 40-80 mg/kg single oral dose) of the same compound?
The value was “about 120 min”.

What about the “duration of the effect on insulin concentration” value [4] of the same compound?
The value was “about 120 min”.

What about the insulin concentration ([4]; 120 min after glucose intake) of the same compound?
Its insulin concentration is 1285.04 ± 135.60 pmol/L.

What about the “increase of insulin concentration compared to the control group” value ([4]; after 120 min) of the same compound?
Its value is 4.93 times.

And the insulin concentration ([4]; fasted state)?
Its insulin concentration is 450 ± 43.50 pmol/L.
